“Also recorded” adds a separate entry of the source. Like-named read-outs stand apart in the source and are kept apart here. Non-standard residues stand in square brackets, D forms with d. Residues, ends and D or L forms follow the SMILES beside them. *: point of attachment. X1 = CC(=O)O[C@@]12CO[C@@H]1C[C@H](O)[C@@]1(C)C(=O)[C@H](O)C3=C(C)[C@@H](OC(=O)[C@H](OC(=O)CCC(=O)*)[C@@H](NC(=O)OC(C)(C)C)c4ccccc4)C[C@@](O)([C@@H](OC(=O)c4ccccc4)[C@H]21)C3(C)C; Nle = CCCC[C@H](N)C(=O)O
Columns and labels:
[1] = system: AN3-CA endometrial xenograft tumor; assay type: in vivo, mice
Protocol: (§1) Briefly, stock solution of formulated TH1902 was prepared as sterile aliquots of 10 mg/mL frozen liquid solutions (see below). On the day of animal dosing, frozen aliquots were thawed 30 minutes at room temperature then diluted with sterile 5% dextrose injection, USP (D5W) to the desired concentration for injection (i.e. typically 5.4 or 1.35 mg/mL).
(§2) TH1902 frozen stock solution were prepared as follow: • 1. Make the TH1902 diluent solution (Diluent) the day before the solubilization. Diluent: 10% Tween™ 80 in D5W USP (w/v) with 0.04% of formic acid (v/v), ˜pH 2.9. Leave solution at room temperature until TH1902 solubilization (next day). • 2. Weigh 60 mg of TH1902 API into a 14 ml glass vial with screw caps. Adjust TH1902 weights to reflect TH1902 purity according to the certificate of analysis. • 3. Add 90% of diluent solution needed to prepare the TH1902 10 mg/ml stock solution. • 4. Swirl the content of the bottle to form opaque mixture and place a stir bar. • 5. Place bottle in the heating apparatus (glass water bath and mount for holding vial with thermometer and stir bar on a digital heating plate). Begin mixing the content of the bottle. • 6. […] Transfer the formulation to a graduated glass cylinder and bring to final calculated volume with diluent solution. • 9. […] Perform UPLC analysis against a TH1902 standard curve for quantification and purity assessment. • 11. […]
Three human sortilin-positive gynecological cancer cell lines (ovary: ES-2 and SKOV-3/Luc, endometrial: AN3-CA) were used for to assess the chemotherapeutic activity of TH1902 in vivo using xenograft models in immunodeficient mice. […] Body weights of the mice administered with docetaxel, TH1902 or vehicle were monitored as a gross indicator of morbidity.
The effect of TH1902 or docetaxel on the endometrial AN3-CA xenograft tumor model is shown on FIG. 24. […] In FIG. 24B effects of TH1902 and docetaxel on tumor progression at day-14 are presented by subtracting the initial tumor volumes at day-0 to the tumor volumes measured at day 14. […]

[2] = in vitro stability in mouse plasma; assay type: in vitro ADME; conditions: 37° C.
Protocol: Additional testing was conducted to study the stability of formulated TH1902 in mouse plasma. TH1902 was either solubilized in […] or formulated with solubilizing agents (Formulation: DMSO/Solutol™ HS15/Tween™-80/EtOH/Sol. Ac. Ac./D5W/water in the following V/V proportion 5/6/2.5/0.75/0.005/69/16.75). TH1902 was incubated in mouse plasma at 37° C. for the indicated times. Plasma proteins were precipitated by the addition of 4 volumes of ACN (87%) with formic acid (0.125%) followed by centrifugation (10,000 rpm×5 min). Supernatants were injected in UPLC/MS. Peak area corresponding to TH1902 was calculated and compared to time 0.

[3] = system: MDA-MB-231/Luc (triple-negative breast cancer) xenografts; assay: tumor growth inhibition, MDA-MB-231/Luc xenografts in nude mice, TH1902 formulations (Examples 3A, 3B); assay type: in vivo
Protocol: TH1902 and docetaxel (supplied by Wonda Science Inc.) were used. […] Both treatments were administered intravenously, on a per week basis over 6 weeks.
8 different formulations comprising TH1902 were tested.
These are derived from a triple-negative breast cancer (TNBC) and they stably express firefly luciferase. […] Cell counts and cell viability were assessed with a BioRad TC20™ automated cell counter.
60 young adult, female, homozygous nude mice (Crl:CD1-Foxn1^nu), obtained from Charles River Canada Inc. (St-Constant, Quebec) were used in this study. Healthy mice were selected based on normal veterinary examination.
Tumor growth was monitored, and mice were randomly assigned to groups the vehicle group, docetaxel group or one of the 8 TH1902 formulations group (6 mice per group) for further treatment when tumor volumes reached 40-140 mm^3 or after 2-3 days of significant increase. Experimental procedures
Mice were first anesthetized with isoflurane and oxygen. Two-dimensional measurements were taken with electronic calipers during the study and tumor volume was calculated using the following formula: tumor volume (mm^3)=0.52*a*b^2, where 0.52 is a constant to calculate the volume of an ellipsoid (π/6), where “a” is the longest diameter and “b” is the shortest diameter[3]. […]
All mice were observed daily for changes in appearance and behavior, and events recorded when appropriate. […]

[4] = system: PANC-1 subcutaneous tumor xenografts; assay: pancreatic cancer xenograft model (PANC-1); assay type: in vivo, mice; conditions: vs vehicle
Protocol: as §1, §2

Row | Compound | body weights ([1]; MTD for docetaxel, TH1902 containing the equivalent quantity of docetaxel) | half-life ([2]; TH1902 formulated with solubilizing agents (DMSO/Solutol HS15/Tween-80/EtOH/Sol. Ac. Ac./D5W/water 5/6/2.5/0.75/0.005/69/16.75)) [h] | half-life ([2]; TH1902 solubilized in DMSO) [h] | tumor volumes / tumor growth up to Day 24 ([3]; 8.75 mg/kg/week TH1902, docetaxel at ¼ MTD, vs vehicle, FIG. 16) | ΔT/ΔC (%) (at endpoint, Day-24) ([3]; 8.75 mg/kg/week of TH1902 (docetaxel 3.75 mg/kg)) | tumor growth / tumor size, low dose ([4]; docetaxel 3.75 mg/kg, TH1902 8.75 mg/kg, day 21 and extended) | tumor growth / tumor size, high dose ([4]; docetaxel 15 mg/kg (MTD), TH1902 35 mg/kg, day 21) | tumor growth, high dose ([1]; equivalent dose of docetaxel 15 mg/kg/week (TH1902 35 mg/kg/week), halved after 2 cycles) | body weights ([1]; mouse, in vivo)
1 | CCCC[C@H](NC(=O)[C@H](CC(N)=O)NC(=O)[C@H](CCCNC(=N)N)NC(=O)[C@@H](NC(=O)CNC(=O)[C@H](C)NC(=O)[C@H](CCCCNC(=O)CCC(=O)O[C@@H](C(=O)O[C@H]1C[C@@]2(O)[C@@H](OC(=O)c3ccccc3)[C@@H]3[C@]4(OC(C)=O)CO[C@@H]4C[C@H](O)[C@@]3(C)C(=O)[C@H](O)C(=C1C)C2(C)C)[C@@H](NC(=O)OC(C)(C)C)c1ccccc1)NC(=O)[C@H](C)NC(=O)[C@H](CCCNC(=N)N)NC(=O)[C@@H](NC(=O)CNC(C)=O)C(C)C)C(C)C)C(=O)N[C@@H](Cc1ccccc1)C(=O)N[C@@H](CCCCNC(=O)CCC(=O)O[C@@H](C(=O)O[C@H]1C[C@@]2(O)[C@@H](OC(=O)c3ccccc3)[C@@H]3[C@]4(OC(C)=O)CO[C@@H]4C[C@H](O)[C@@]3(C)C(=O)[C@H](O)C(=C1C)C2(C)C)[C@@H](NC(=O)OC(C)(C)C)c1ccccc1)C(=O)N[C@@H](CO)C(=O)N[C@@H](CCC(=O)O)C(=O)N[C@@H](CO)C(=O)N[C@@H](Cc1ccc(O)cc1)C(=O)O [TH1902, Acetyl-GVRAK(docetaxel)AGVRN(Nle)FK(docetaxel)SESY] (Ac-GVRAK(X1)AGVRN[Nle]FK(X1)SESY-OH) | retained a fairly constant weight | 30 | 5 |  |  |  |  |  | 
2 | CC(=O)O[C@@]12CO[C@@H]1C[C@H](O)[C@@]1(C)C(=O)[C@H](O)C3=C(C)[C@@H](OC(=O)[C@H](O)[C@@H](NC(=O)OC(C)(C)C)c4ccccc4)C[C@@](O)([C@@H](OC(=O)c4ccccc4)[C@H]21)C3(C)C [docetaxel] |  |  |  | grow slightly faster than those in the control animals | 143 | very similar in size to those treated with vehicle; also recorded: indistinguishable | Decreased tumor growth; also recorded: significant decreases in tumor size | complete arrest tumor growth arrest | greater evidence of weight loss

Source: patent publication US20230036041A1, “SORTILIN BINDING CONJUGATE COMPOUNDS, COMPOSITIONS AND USES THEREOF FOR TREATING CANCER” (THERATECHNOLOGIES INC., priority 2019, published 2023)
